Like-named read-outs stand apart in the source and are kept apart here.
Columns and labels:
[1] = target: Fak (Homo sapiens, UniProt Q05397); assay: Fak degradation, immunoblotting in PC3 cells; format: cell-based; settings: PC-3; degradation maximum, PC3 cells, 24 hour treatment, n = 3
Protocol: PC3 cells were cultured in F12-K (Kaighn's Modification of Ham's F-12 Medium), supplemented with 10% fetal bovine serum (FBS) and 1% penicillin-streptomycin at 37° C. and 5% CO2.
If not indicated otherwise, cells were seeded and grown to 80% confluency and were treated with compound or control for 24 hours. […] After 20 minutes the mixture was spun down at 16,000×g for 10 minutes at 4° C. to pellet insoluble materials. Protein concentration of supernatants were determined via BCA assay (Thermo Fisher) before addition of NuPAGE sample buffer containing 5% β-Me and boiling at 95° C. for 10 minutes. Equal amounts of protein were subjected to SDS-PAGE and subsequent electrophoretic transfer onto nitrocellulose membrane. […] Immunoblots were developed using enhanced chemiluminescence and visualized using a Bio-Rad Chemi-Doc MP Imaging System and quantitated with Image Lab v.5.2.1 software (Bio-Rad Laboratories). Data analysis and statistics was performed using Prism 7.0 (GraphPad).
Examination of Target Protein (Fak) Degradation.

[2] = Pharmacokinetics of intraperitoneal or intravenous injection in CD1 mice; format: in vivo; settings: CD1 mice plasma; for concentration at 0.25 h / concentration at 0.5 h / concentration at 1 h / concentration at 2 h / concentration at 4 h / concentration at 0.033 h / concentration at 0.083 h: male, CD1, mouse, plasma
Protocol: The pharmacokinetics of exemplary compounds 103, 107, 100, 101, and 102 was examined for intraperitoneal and intravenous administration. The desired serial concentrations of working solutions were achieved by diluting stock solution (1 mg/mL in DMSO) of analyte with methanol. In particular, 20 μL of working solutions (1, 2, 5, 10, 50, 100, 500, 1000, 2000 ng/mL) were added to 20 μL of the blank CD1 mice plasma to achieve calibration standards of 1-2000 ng/mL (1, 2, 5, 10, 50, 100, 500, 1000, 2000 ng/mL) in a total volume of 40 μL. Dose of IV and IP were diluted by 1000 fold and 10000 with methanol, 20 μL of the diluted dose solutions were added to 20 μL of the blank CD1 mice plasma to achieve dose samples. Next, 40 μL standards and 40 μL dose samples were added to 20 μL of IS (100 ng/mL) and 200 μL of acetonitrile for precipitating protein respectively. Then the samples were vortexed for 30 seconds. After centrifugation at 4 degree Celsius, 4000 rpm for 15 minutes, the supernatant was diluted 3 times with water. 10 μL of the diluted supernatant was injected into the LC/MS/MS system for quantitative analysis.
Exemplary compounds 103, 107, 100, 101, and 102 were administered intravenously (5 second injection of 10% HP-b-CD and 40 mM sodium acetate and 40 mM NaCl in water, pH4.5) or intraperitoneally (5% EtOH and 5% Solutol HS15 in D5W(ESD-2)) to 6-8 week old male CD1 mice (3 mice per treatment group for a total of 12 mice) at the time points indicated below in Table 7. The mice had free access to food and water.
Dorsal metatarsal vein samples (30 μL), except that the final sample was acquired via a heart puncture, were taken from the mice at the same the administration time points as shown in Table 7.

[3] = iv, 1 mg/kg, IV 1.0 mg/kg, read-out: Conc. (ng/mL) Mouse 1
[4] = iv, 1 mg/kg, IV 1.0 mg/kg, read-out: Conc. (ng/mL) Mouse 2
[5] = iv, 1 mg/kg, IV 1.0 mg/kg, read-out: Conc. (ng/mL) Mouse 3
[6] = iv, 1 mg/kg, IV 1.0 mg/kg, read-out: Mean

Sequence of Fak (Q05397 whole entry): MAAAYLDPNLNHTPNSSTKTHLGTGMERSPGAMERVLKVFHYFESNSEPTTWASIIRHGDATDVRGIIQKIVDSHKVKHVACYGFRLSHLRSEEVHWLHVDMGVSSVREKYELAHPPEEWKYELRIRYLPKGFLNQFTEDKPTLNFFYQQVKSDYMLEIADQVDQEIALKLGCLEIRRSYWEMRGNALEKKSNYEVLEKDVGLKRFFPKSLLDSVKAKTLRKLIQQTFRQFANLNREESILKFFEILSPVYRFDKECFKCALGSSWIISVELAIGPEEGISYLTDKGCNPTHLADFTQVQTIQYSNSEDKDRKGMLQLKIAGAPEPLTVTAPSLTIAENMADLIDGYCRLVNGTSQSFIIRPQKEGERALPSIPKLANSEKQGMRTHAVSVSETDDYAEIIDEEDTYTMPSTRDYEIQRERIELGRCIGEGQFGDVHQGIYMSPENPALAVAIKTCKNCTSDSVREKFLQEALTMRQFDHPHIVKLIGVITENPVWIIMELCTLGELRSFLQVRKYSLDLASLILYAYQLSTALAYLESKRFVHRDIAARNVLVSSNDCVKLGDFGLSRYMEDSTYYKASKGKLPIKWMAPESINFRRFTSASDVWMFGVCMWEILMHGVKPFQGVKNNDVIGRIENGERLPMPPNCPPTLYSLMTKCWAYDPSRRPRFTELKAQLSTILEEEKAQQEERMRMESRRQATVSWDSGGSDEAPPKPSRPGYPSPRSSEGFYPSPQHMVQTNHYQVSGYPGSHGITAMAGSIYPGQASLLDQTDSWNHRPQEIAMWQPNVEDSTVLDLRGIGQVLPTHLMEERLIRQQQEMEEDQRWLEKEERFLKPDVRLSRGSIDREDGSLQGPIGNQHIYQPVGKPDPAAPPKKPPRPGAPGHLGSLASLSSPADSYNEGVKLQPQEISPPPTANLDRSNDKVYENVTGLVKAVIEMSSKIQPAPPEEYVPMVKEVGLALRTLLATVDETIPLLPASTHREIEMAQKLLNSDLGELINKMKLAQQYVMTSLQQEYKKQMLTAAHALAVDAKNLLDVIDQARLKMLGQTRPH

CNC(=O)c1ccc(Nc2ncc(C(F)(F)F)c(NCc3nccnc3N(C)S(C)(=O)=O)n2)cc1 [Defactinib, defactinib, reference compound]
Dmax [1]: 0%

CN(c1cccc(CNc2nc(Nc3ccc(OCCCOCCC(=O)NCCOc4cccc5c4C(=O)N(C4CCC(=O)NC4=O)C5=O)cc3)ncc2C(F)(F)F)c1)S(C)(=O)=O (stereo not drawn) [Compound 107]
Conc. (ng/mL) Mouse 1 ([2]; IP 10 mg/kg, 8 h): BLOQ
Conc. (ng/mL) Mouse 2 ([2]; IP 10 mg/kg, 8 h): BLOQ
Conc. (ng/mL) Mouse 3 ([2]; IP 10 mg/kg, 8 h): BLOQ
Conc. (ng/mL) Mouse 1 ([2]; IP 10 mg/kg, 24 h): BLOQ
Conc. (ng/mL) Mouse 2 ([2]; IP 10 mg/kg, 24 h): BLOQ
Conc. (ng/mL) Mouse 3 ([2]; IP 10 mg/kg, 24 h): BLOQ
Conc. (ng/mL) Mouse 1 ([2]; IV 1.0 mg/kg, 0.25 h): BLOQ
Conc. (ng/mL) Mouse 1 ([2]; IV 1.0 mg/kg, 0.5 h): BLOQ
Conc. (ng/mL) Mouse 2 ([2]; IV 1.0 mg/kg, 0.5 h): BLOQ
Conc. (ng/mL) Mouse 3 ([2]; IV 1.0 mg/kg, 0.5 h): BLOQ
Conc. (ng/mL) Mouse 1 ([2]; IV 1.0 mg/kg, 1 h): BLOQ
Conc. (ng/mL) Mouse 2 ([2]; IV 1.0 mg/kg, 1 h): BLOQ
Conc. (ng/mL) Mouse 3 ([2]; IV 1.0 mg/kg, 1 h): BLOQ
Conc. (ng/mL) Mouse 1 ([2]; IV 1.0 mg/kg, 2 h): BLOQ
Conc. (ng/mL) Mouse 2 ([2]; IV 1.0 mg/kg, 2 h): BLOQ
Conc. (ng/mL) Mouse 3 ([2]; IV 1.0 mg/kg, 2 h): BLOQ
Conc. (ng/mL) Mouse 1 ([2]; IV 1.0 mg/kg, 4 h): BLOQ
Conc. (ng/mL) Mouse 2 ([2]; IV 1.0 mg/kg, 4 h): BLOQ
Conc. (ng/mL) Mouse 3 ([2]; IV 1.0 mg/kg, 4 h): BLOQ
Conc. (ng/mL) Mouse 1 ([2]; IV 1.0 mg/kg, 8 h): BLOQ
Conc. (ng/mL) Mouse 2 ([2]; IV 1.0 mg/kg, 8 h): BLOQ
Conc. (ng/mL) Mouse 3 ([2]; IV 1.0 mg/kg, 8 h): BLOQ
Conc. (ng/mL) Mouse 1 ([2]; IV 1.0 mg/kg, 24 h): BLOQ
Conc. (ng/mL) Mouse 2 ([2]; IV 1.0 mg/kg, 24 h): BLOQ
Conc. (ng/mL) Mouse 3 ([2]; IV 1.0 mg/kg, 24 h): BLOQ
concentration at 0.25 h ([2]; ip, 10 mg/kg, IP 10 mg/kg, 0.25 h, read-out: Conc. (ng/mL) Mouse 1): 44.8 ng/mL
concentration at 0.25 h ([2]; ip, 10 mg/kg, IP 10 mg/kg, 0.25 h, read-out: Conc. (ng/mL) Mouse 2): 42.6 ng/mL
concentration at 0.25 h ([2]; ip, 10 mg/kg, IP 10 mg/kg, 0.25 h, read-out: Conc. (ng/mL) Mouse 3): 111 ng/mL
concentration at 0.25 h ([2]; ip, 10 mg/kg, IP 10 mg/kg, 0.25 h, read-out: Mean): 66 ng/mL
concentration at 0.5 h ([2]; ip, 10 mg/kg, IP 10 mg/kg, 0.5 h, read-out: Conc. (ng/mL) Mouse 1): 68.4 ng/mL
concentration at 0.5 h ([2]; ip, 10 mg/kg, IP 10 mg/kg, 0.5 h, read-out: Conc. (ng/mL) Mouse 2): 41.9 ng/mL
concentration at 0.5 h ([2]; ip, 10 mg/kg, IP 10 mg/kg, 0.5 h, read-out: Conc. (ng/mL) Mouse 3): 69.3 ng/mL
concentration at 0.5 h ([2]; ip, 10 mg/kg, IP 10 mg/kg, 0.5 h, read-out: Mean): 59.9 ng/mL
concentration at 1 h ([2]; ip, 10 mg/kg, IP 10 mg/kg, 1 h, read-out: Conc. (ng/mL) Mouse 1): 64.7 ng/mL
concentration at 1 h ([2]; ip, 10 mg/kg, IP 10 mg/kg, 1 h, read-out: Conc. (ng/mL) Mouse 2): 54.2 ng/mL
concentration at 1 h ([2]; ip, 10 mg/kg, IP 10 mg/kg, 1 h, read-out: Conc. (ng/mL) Mouse 3): 199 ng/mL
concentration at 1 h ([2]; ip, 10 mg/kg, IP 10 mg/kg, 1 h, read-out: Mean): 106 ng/mL
concentration at 2 h ([2]; ip, 10 mg/kg, IP 10 mg/kg, 2 h, read-out: Conc. (ng/mL) Mouse 1): 53.2 ng/mL
concentration at 2 h ([2]; ip, 10 mg/kg, IP 10 mg/kg, 2 h, read-out: Conc. (ng/mL) Mouse 2): 38.1 ng/mL
concentration at 2 h ([2]; ip, 10 mg/kg, IP 10 mg/kg, 2 h, read-out: Conc. (ng/mL) Mouse 3): 59.8 ng/mL
concentration at 2 h ([2]; ip, 10 mg/kg, IP 10 mg/kg, 2 h, read-out: Mean): 50.4 ng/mL
concentration at 4 h ([2]; ip, 10 mg/kg, IP 10 mg/kg, 4 h, read-out: Conc. (ng/mL) Mouse 1): 4.11 ng/mL
concentration at 4 h ([2]; ip, 10 mg/kg, IP 10 mg/kg, 4 h, read-out: Conc. (ng/mL) Mouse 2): 14.9 ng/mL
concentration at 4 h ([2]; ip, 10 mg/kg, IP 10 mg/kg, 4 h, read-out: Conc. (ng/mL) Mouse 3): 22.2 ng/mL
concentration at 4 h ([2]; ip, 10 mg/kg, IP 10 mg/kg, 4 h, read-out: Mean): 13.7 ng/mL
concentration at 0.033 h [2, 3]: 31.4 ng/mL
concentration at 0.033 h [2, 4]: 31.6 ng/mL
concentration at 0.033 h [2, 5]: 34.3 ng/mL
concentration at 0.033 h [2, 6]: 32.4 ng/mL
concentration at 0.083 h [2, 3]: 8.44 ng/mL
concentration at 0.083 h [2, 4]: 9.65 ng/mL
concentration at 0.083 h [2, 5]: 9.61 ng/mL
concentration at 0.083 h [2, 6]: 9.23 ng/mL
concentration at 0.25 h ([2]; iv, 1 mg/kg, IV 1.0 mg/kg, 0.25 h, read-out: Conc. (ng/mL) Mouse 2): 2.25 ng/mL
concentration at 0.25 h ([2]; iv, 1 mg/kg, IV 1.0 mg/kg, 0.25 h, read-out: Conc. (ng/mL) Mouse 3): 1.73 ng/mL
concentration at 0.25 h ([2]; iv, 1 mg/kg, IV 1.0 mg/kg, 0.25 h, read-out: Mean): 1.99 ng/mL

— patent US20200038513A1, “MODULATORS OF FAK PROTEOLYSIS AND ASSOCIATED METHODS OF USE” (ARVINAS OPERATIONS, INC., priority 2018, published 2020)
